Measured values taken from patent US6407116B1, “Nitrogenous fused-ring compounds, process for the preparation of the same, and drugs” (Takeda Chemical Industries, Inc., priority 1997, dated 2002).
Counter-ions that a name gives are not always drawn.

System: not given
Experiment: not given
Conditions: not given

Q: Which melting point does the source give for O=c1[nH]c(=O)n(CCCN2CCC(OC(c3ccccc3)c3ccccc3)CC2)c2ccccc12 [Example 1, 2,4-Dioxo-1-[3-(4-diphenylmethoxy-1-piperidinyl)propyl]-1,2,3,4-tetrahydroquinazoline] here?
A: Its melting point is 149 to 151 °C.

Q: With O=C(O)c1ccc2c(c1)c(=O)[nH]c(=O)n2CCCCN1CCC(OC(c2ccccc2)c2ccccc2)CC1 [Example 89, 2,4-Dioxo-1-[4-(4-diphenylmethoxypiperidino)butyl]-1,2,3,4-tetrahydroquinazoline-6-carboxylic acid] as the compound, how does the melting point read?
A: The melting point was 161 to 163 °C.

Q: For O=C(O)Cn1c(=O)n(CCCCN2CCC(OC(c3ccccc3)c3ccccc3)CC2)c(=O)c2ccccc21 [Example 72, 2,4-Dioxo-3-[4-(4-diphenylmethoxypiperidino)butyl]-1,2,3,4-tetrahydroquinazoline-1-acetic acid], which melting point is on record?
A: The melting point was 153 to 155 °C.

Q: With O=c1[nH]c2ccccc2c(=O)n1CCCCN1CCC(OC(c2ccccc2)c2ccccc2)CC1 [Example 80, 2,4-Dioxo-3-[4-(4-diphenylmethoxypiperidino)butyl]-1,2,3,4-tetrahydroquinazoline] as the compound, how does the melting point read?
A: The melting point was 140 to 142 °C.

Q: For O=c1[nH]c(=O)n(CCCCN2CCC(OC(c3ccccc3)c3ccccc3)CC2)c2cc([N+](=O)[O-])ccc12 [Example 11, 2,4-Dioxo-1-[4-(4-diphenylmethoxypiperidino)butyl]-7-nitro-1,2,3,4-tetrahydroquinazoline], which melting point is on record?
A: Its melting point is 214 to 215 °C.

Q: With CN(C)c1ccc2c(c1)c(=O)[nH]c(=O)n2CCCCN1CCC(OC(c2ccccc2)c2ccccc2)CC1 [Example 42, 6-Dimethylamino-2,4-dioxo-1-[4-(4-diphenylmethoxypiperidino)butyl]-1,2,3,4-tetrahydroquinazoline] as the compound, how does the melting point read?
A: The melting point was 165 to 167 °C.

Q: Which melting point does the source give for COC(=O)c1ccc2c(=O)[nH]c(=O)n(CCCCN3CCC(OC(c4ccccc4)c4ccccc4)CC3)c2c1 [Example 85, Methyl 2,4-dioxo-1-[4-(4-diphenylmethoxypiperidino)butyl]-1,2,3,4-tetrahydroquinazoline-7-carboxylate] here?
A: The melting point was 192 to 194 °C.

Q: With O=c1[nH]c(=O)n(CCCCN2CCC(OC(c3ccccc3)c3ccccc3)CC2)c2cc(Cl)ccc12 [Example 9, 7-Chloro-2,4-dioxo-1-[4-(4-diphenylmethoxypiperidino)butyl]-1,2,3,4-tetrahydroquinazoline] as the compound, how does the melting point read?
A: Its melting point is 169 to 171 °C.

Q: For O=C(O)CCCn1c(=O)n(CCCCN2CCC(OC(c3ccccc3)c3ccccc3)CC2)c(=O)c2ccccc21 [Example 78, 2,4-Dioxo-3-[4-(4-diphenylmethoxypiperidino)butyl]-1,2,3,4-tetrahydroquinazoline-1-butyric acid], which melting point is on record?
A: Its melting point is 227 to 229 °C.

Q: For COC(=O)C(C)(C)c1ccc2c(c1)c(=O)[nH]c(=O)n2CCCCN1CCC(OC(c2ccccc2)c2ccccc2)CC1.Cl, which melting point is on record?
A: The melting point was 223 to 225 °C.

Q: With O=C(O)c1ccc2c(=O)[nH]c(=O)n(CCCCN3CCC(OC(c4ccccc4)c4ccccc4)CC3)c2c1 [Example 90, 2,4-Dioxo-1-[4-(4-diphenylmethoxypiperidino)butyl]-1,2,3,4-tetrahydroquinazoline-7-carboxylic acid] as the compound, how does the melting point read?
A: Its melting point is 177 to 179 °C.

Q: Which melting point does the source give for O=c1[nH]c2ccccc2c(=O)n1CCCN1CCC(OC(c2ccccc2)c2ccccc2)CC1 [Example 79, 2,4-Dioxo-3-[3-(4-diphenylmethoxypiperidino)propyl]-1,2,3,4-tetrahydroquinazoline] here?
A: The melting point was 173 to 175 °C.

Q: With N#CCCCCn1c(=O)c2ccccc2n(CCCCN2CCC(OC(c3ccccc3)c3ccccc3)CC2)c1=O (as salt: hydrochloride) [Example 93, 2,4-Dioxo-1-[4-(4-diphenylmethoxypiperidino)butyl]-1,2,3,4-tetrahydroquinazoline-3-valeronitrile] as the compound, how does the melting point read?
A: Its melting point is 119 to 121 °C.

Q: Which melting point does the source give for COC(=O)Cn1c(=O)c2ccccc2n(CCCN2CCC(OC(c3ccccc3)c3ccccc3)CC2)c1=O [Example 14, Methyl 2,4-dioxo-1-[3-(4-diphenylmethoxypiperidino)propyl]-1,2,3,4-tetrahydroquinazoline-3-acetate] here?
A: The melting point was 109 to 110 °C.

Q: Which melting point does the source give for O=C(O)CCn1c(=O)n(CCCN2CCC(OC(c3ccccc3)c3ccccc3)CC2)c(=O)c2ccccc21 [Example 75, 2,4-Dioxo-3-[3-(4-diphenylmethoxypiperidino)propyl]-1,2,3,4-tetrahydroquinazoline-1-propionic acid] here?
A: The melting point was 237 to 238 °C.

Q: Which melting point does the source give for O=c1[nH]c(=O)n(CCCCCN2CCC(OC(c3ccccc3)c3ccccc3)CC2)c2ccccc12 [Example 3, 2,4-Dioxo-1-[5-(4-diphenylmethoxy-1-piperidinyl)pentyl]-1,2,3,4-tetrahydroquinazoline] here?
A: Its melting point is 173 to 174 °C.

Q: With Cl.O=c1[nH]c(=O)n(CCCCN2CCC(c3c[nH]c4ccccc34)CC2)c2ccccc12 as the compound, how does the melting point read?
A: Its melting point is 250 to 252 °C.

Q: With COC(=O)C1(n2c(=O)c3ccccc3n(CCCCN3CCC(OC(c4ccccc4)c4ccccc4)CC3)c2=O)CCCC1.Cl as the compound, how does the melting point read?
A: Its melting point is 178 to 180 °C.

Q: With O=C(O)Cn1c(=O)c2ccccc2n(CCCN2CCC(OC(c3ccccc3)c3ccccc3)CC2)c1=O [Example 49, 2,4-Dioxo-1-[3-(4-diphenylmethoxypiperidino)propyl]-1,2,3,4-tetrahydroquinazoline-3-acetic acid] as the compound, how does the melting point read?
A: The melting point was 170 to 172 °C.

Q: For Cl.O=c1[nH]c(=O)n(CCCCN2CCN(C(c3ccccc3)c3ccccc3)CC2)c2ccccc12, which melting point is on record?
A: The melting point was 161 to 163 °C.

Q: Which melting point does the source give for N#Cn1c(=O)c2ccccc2n(CCCCN2CCC(OC(c3ccccc3)c3ccccc3)CC2)c1=O [Example 92, 2,4-Dioxo-1-[4-(4-diphenylmethoxypiperidino)butyl]-1,2,3,4-tetrahydroquinazoline-3-carbonitrile] here?
A: Its melting point is 106 to 107 °C.

Q: Which melting point does the source give for O=C(O)CCn1c(=O)c2ccccc2n(CCCN2CCC(OC(c3ccccc3)c3ccccc3)CC2)c1=O [Example 51, 2,4-Dioxo-1-[3-(4-diphenylmethoxypiperidino)propyl]-1,2,3,4-tetrahydroquinazoline-3-propionic acid] here?
A: Its melting point is 150 to 151 °C.

Q: Which melting point does the source give for Cl.O=c1[nH]c(=O)n(CCCCN2CCC(OC(c3ccccc3)c3ccccc3)CC2)c2ncccc12 here?
A: Its melting point is 121 to 123 °C.

Q: Which melting point does the source give for O=C(O)CC(=O)Nc1ccc2c(c1)c(=O)[nH]c(=O)n2CCCCN1CCC(OC(c2ccccc2)c2ccccc2)CC1 [Example 48, [2,4-Dioxo-1-[4-(4-diphenylmethoxypiperidino)butyl]-1,2,3,4-tetrahydro-6-quinazolinyl]carbamoylacetic acid] here?
A: Its melting point is 166 to 168 °C.

Q: With O=C(O)Cn1c(=O)c2ccccc2n(CCCCN2CCC(OC(c3ccccc3)c3ccccc3)CC2)c1=O [Example 50, 2,4-Dioxo-1-[4-(4-diphenylmethoxypiperidino)butyl]-1,2,3,4-tetrahydroquinazoline-3-acetic acid] as the compound, how does the melting point read?
A: Its melting point is 184 to 186 °C.

Q: For CS(=O)(=O)Nc1ccc2c(c1)c(=O)[nH]c(=O)n2CCCCN1CCC(OC(c2ccccc2)c2ccccc2)CC1.Cl, which melting point is on record?
A: Its melting point is 225 to 227 °C.

Q: For O=C(O)CCn1c(=O)n(CCCCN2CCC(OC(c3ccccc3)c3ccccc3)CC2)c(=O)c2ccccc21 [Example 76, 2,4-Dioxo-3-[4-(4-diphenylmethoxypiperidino)butyl]-1,2,3,4-tetrahydroquinazoline-1-propionic acid], which melting point is on record?
A: The melting point was 110 to 112 °C.

Q: For COC(=O)Cn1c(=O)c2ccccc2n(CCCCN2CCC(OC(c3ccccc3)c3ccccc3)CC2)c1=O [Example 15, Methyl 2,4-dioxo-1-[4-(4-diphenylmethoxypiperidino)butyl]-1,2,3,4-tetrahydroquinazoline-3-acetate], which melting point is on record?
A: Its melting point is 91 to 93 °C.

Q: With Cl.Cn1c(=O)c2ccccc2n(CCCN2CCC(OC(c3ccccc3)c3ccccc3)CC2)c1=O as the compound, how does the melting point read?
A: Its melting point is 127 to 128 °C.

Q: For O=C(O)CCCCn1c(=O)c2cc(O)ccc2n(CCCCN2CCC(OC(c3ccccc3)c3ccccc3)CC2)c1=O [Example 105, 2,4-Dioxo-1-[4-(4-diphenylmethoxypiperidino)butyl]-6-hydroxy-1,2,3,4-tetrahydroquinazoline-3-valeric acid], which melting point is on record?
A: Its melting point is 234 to 236 °C.

Q: Which melting point does the source give for Cl.O=c1c2ccccc2n(CCCCN2CCC(OC(c3ccccc3)c3ccccc3)CC2)c(=O)n1C1CCCCC1 here?
A: Its melting point is 206 to 208 °C.

Q: For Nc1ccc2c(=O)[nH]c(=O)n(CCCCN3CCC(OC(c4ccccc4)c4ccccc4)CC3)c2c1 [Example 39, 7-Amino-2,4-dioxo-1-[4-(4-diphenylmethoxypiperidino)butyl]-1,2,3,4-tetrahydroquinazoline], which melting point is on record?
A: Its melting point is 162 to 164 °C.

System: guinea-pig eosinophils
Experiment: Chemotaxis inhibition assay: LTB4-induced chemotaxis in guinea-pig eosinophils
Assay type: cell-based
Conditions: Cavia porcellus, Eosinophil, test substance 1×10^−5 M, LTB4 10^−8 M, 2 hours
Procedure: 1) Guinea-pig Eosinophil Preparation
Male Hartley guinea-pigs received 2 ml of equine serum (Bio-Whittaker, Inc) intraperitoneally once a week for successive 8 weeks. 48 hours after the last administration, 75 ml of physiological saline was injected into the peritoneal cavity, and the fluid was recovered and centrifuged at 400 G for 5 minutes. […] Erythrocytes in the isolated cell pellet, if any, were removed by hypotonic treatment (suspended in water for 30 seconds).
2) Chemotaxis Inhibition Assay
600 μl of LTB4 suspended in Hanks-Hepes-HSA (final concentration of 10^−8 M, Cascade Biochemical Ltd.) was placed in the lower compartment of a 24-well plate and kept at 37° C. for 30 minutes in a CO2 gas incubator. After mounting a Chemotaxicell (polycarbonate membrane, pore size 3 μm, thickness 10 μm), which served as an upper compartment, on the 24-well plate described above, 200 μl of eosinophil suspension (5×10^6 cells/ml), which had been incubated at 37° C. for 15 minutes in a thermostat chamber, was added to the upper compartment. After allowing to react for 2 hours in the CO2 gas incubator, the Chemotaxicell was removed, and 60 μl of 2% (w/v) EDTA solution in physiological saline was added to the lower compartment. After cooling on ice, the cells which underwent the chemotaxis into the lower compartment were counted using a blood cell counter (Coulter Counter (trade name)). In the procedure described above, the test substance was dissolved in N,N-dimethylformamide (DMF) and added to the upper and lower compartments at the final concentration of 10^−5 M.
% Chemotaxis inhibition=[…] [Equation 2]
The results are shown in [Table 2].

Q: For O=c1c2ccccc2n(CCCCN2CCC(OC(c3ccccc3)c3ccccc3)CC2)c(=O)n1CCCc1ccccc1 [Example 58, 2,4-Dioxo-1-[4-(4-diphenylmethoxypiperidino)butyl]-3-(3-phenylpropyl)-1,2,3,4-tetrahydroquinazoline hydrochloride], which inhibition at 10 µM is on record?
A: Its inhibition at 10 µM is 84%.

Q: For CN(CC(=O)O)C(=O)Cn1c(=O)c2ccccc2n(CCCCN2CCC(OC(c3ccccc3)c3ccccc3)CC2)c1=O [Example 114, N-Carboxylmethyl-2,4-dioxo-1-[4-(4-diphenylmethoxypiperidino)butyl]-N-methyl-1,2,3,4-tetrahydroquinazoline-3-acetamide], which inhibition at 10 µM is on record?
A: Its inhibition at 10 µM is 54%.
